Measurements as given in patent US20100267561A1, “HERBICIDAL PYRIDAZINONE DERIVATIVES” (priority 2007, published 2010).

Experiments:
Assay in all cases: Test B pre-/postemergence plant response
Assay type in all cases: in vivo
[1] = tested on: Italian ryegrass (Lolium multiflorum); details: for Ryegrass, Italian plant response rating: 8 g ai/ha
Description: (§1) Seeds of plant species selected from blackgrass (Alopecurus myosuroides), downy bromegrass (Bromus tectorum), green foxtail (Setaria viridis), Italian ryegrass (Lolium multiflorum), wheat (Triticum aestivum), wild oat (Avena fatua), catchweed bedstraw (Galium aparine), bermudagrass (Cynodon dactylon), surinam grass (Brachiaria decumbens), cocklebur (Xanthium strumarium), corn (Zea mays), large crabgrass (Digitaria sanguinalis), woolly cupgrass (Eriochloa villosa), giant foxtail (Setaria faberii), goosegrass (Eleusine indica), johnsongrass (Sorghum halepense), kochia (Kochia scoparia), lambsquarters (Chenopodium album), morningglory (Ipomoea coccinea), eastern black (E.B.) nightshade (Solanum ptycanthum), yellow nutsedge (Cyperus esculentus), pigweed (Amaranthus retroflexus), common ragweed (Ambrosia elation), Russian thistle (Salsola iberica), soybean (Glycine max), common (oilseed) sunflower (Helianthus annuus), and velvetleaf (Abutilon theophrasti) were planted and treated preemergence with test chemicals formulated in a non-phytotoxic solvent mixture which included a surfactant.
(§2) At the same time, plants selected from these crop and weed species and also winter barley (Hordeum vulgare), canarygrass (Phalaris minor), chickweed (Stellaria media) and windgrass (Apera spica-venti) were treated with postemergence applications of some of the test chemicals formulated in the same manner. Plants ranged in height from 2 to 18 cm (1- to 4-leaf stage) for postemergence treatments.
(§3) Plant species in the flooded paddy test consisted of rice (Oryza sativa), umbrella sedge (Cyperus difformis), ducksalad (Heteranthera limosa) and barnyardgrass (Echinochloa crus-galli) grown to the 2-leaf stage for testing. At time of treatment, test pots were flooded to 3 cm above the soil surface, treated by application of test compounds directly to the paddy water, and then maintained at that water depth for the duration of the test. Treated plants and controls were maintained in a greenhouse for 13 to 15 days, after which time all species were compared to controls and visually evaluated. Plant response ratings, summarized in Table B, are based on a scale of 0 to 100 where 0 is no effect and 100 is complete control. A dash (-) response means no test result.

[2] = tested on: blackgrass (Alopecurus myosuroides); details: for Blackgrass plant response rating: 8 g ai/ha
Description: as §1, §2, §3

[3] = tested on: catchweed bedstraw (Galium aparine); details: Preemergence
Description: as §1, §2, §3

[4] = tested on: downy bromegrass (Bromus tectorum); details: for Bromegrass, Downy plant response rating: 8 g ai/ha
Description: as §1, §2, §3

[5] = tested on: eastern black (E.B.) nightshade (Solanum ptycanthum); details: Preemergence
Description: as §1, §2, §3

[6] = tested on: giant foxtail (Setaria faberii); details: for Foxtail, Giant plant response rating: 8 g ai/ha
Description: as §1, §2, §3

[7] = tested on: green foxtail (Setaria viridis); details: for Foxtail, Green plant response rating: 8 g ai/ha
Description: as §1, §2, §3

[8] = tested on: johnsongrass (Sorghum halepense); details: for Johnsongrass plant response rating: 8 g ai/ha
Description: as §1, §2, §3

[9] = tested on: morningglory (Ipomoea coccinea); details: for Morningglory plant response rating: 8 g ai/ha
Description: as §1, §2, §3

[10] = tested on: pigweed (Amaranthus retroflexus); details: for Pigweed plant response rating: 8 g ai/ha
Description: as §1, §2, §3

[11] = tested on: velvetleaf (Abutilon theophrasti); details: for Velvetleaf plant response rating: 8 g ai/ha
Description: as §1, §2, §3

wild oat (Avena fatua) = details: for Oat, Wild plant response rating: 8 g ai/ha
Description: as §1, §2, §3

[12] = tested on: woolly cupgrass (Eriochloa villosa); details: for Cupgrass, Woolly plant response rating: 8 g ai/ha
Description: as §1, §2, §3

[13] = tested on: yellow nutsedge (Cyperus esculentus)
Description: as §1, §2, §3

[14] = Postemergence, 16 g ai/ha, scale 0 to 100
[15] = Postemergence, 31 g ai/ha, scale 0 to 100, 0 no effect, 100 complete control
[16] = Postemergence, 62 g ai/ha, scale 0 to 100
[17] = Preemergence, 16 g ai/ha, scale 0 to 100 (0 no effect, 100 complete control)
[18] = Preemergence, 62 g ai/ha, scale 0 to 100
[19] = Preemergence, 31 g ai/ha, 0 to 100 scale, 0 no effect, 100 complete control
[20] = 16 g ai/ha, scale 0 to 100 (0 no effect, 100 complete control)
[21] = 31 g ai/ha, 0 to 100 scale, 0 no effect, 100 complete control

CCc1cc(-c2ccc(Cl)cc2)nn1-c1c(O)cnn(C)c1=O [Compound 21]
50: Plant response rating, Bromegrass, Downy [4, 17]
85: Plant response rating, Bromegrass, Downy [4, 16] | Foxtail, Giant plant response rating ([6]; Preemergence, scale 0 to 100) | Plant response rating, Johnsongrass [8, 17] | Plant response rating, Oat, Wild (wild oat (Avena fatua); [17])
100: Plant response rating, Ryegrass, Italian [1, 14] | Plant response rating, Ryegrass, Italian [1, 15] | Plant response rating, Ryegrass, Italian [1, 16] | Plant response rating, Ryegrass, Italian [1, 17] | Plant response rating, Ryegrass, Italian [1, 18] | Plant response rating, Blackgrass [2, 15] | Plant response rating, Blackgrass [2, 16] | Plant response rating, Blackgrass [2, 17] | Plant response rating, Blackgrass [2, 19] | Plant response rating, Blackgrass [2, 18] | Plant response rating, Bromegrass, Downy [4, 18] | Plant response rating, Foxtail, Giant [6, 14] | Plant response rating, Foxtail, Giant [6, 15] | Plant response rating, Foxtail, Giant [6, 16] | Plant response rating, Foxtail, Giant [6, 17] | Plant response rating, Foxtail, Giant [6, 19] | Plant response rating, Foxtail, Giant [6, 18] | Plant response rating, Foxtail, Green [7, 14] | Plant response rating, Foxtail, Green [7, 15] | Plant response rating, Foxtail, Green [7, 16] | Plant response rating, Foxtail, Green [7, 17] | Plant response rating, Foxtail, Green [7, 19] | Plant response rating, Foxtail, Green [7, 18] | Foxtail, Green plant response rating ([7]; Preemergence, scale 0 to 100) | Plant response rating, Johnsongrass [8, 16] | Plant response rating, Johnsongrass [8, 18] | Plant response rating, Oat, Wild (wild oat (Avena fatua); [14]) | Plant response rating, Oat, Wild (wild oat (Avena fatua); [15]) | Plant response rating, Oat, Wild (wild oat (Avena fatua); [16]) | Cupgrass, Woolly plant response rating ([12]; postemergence, 0-100 scale) | Plant response rating, Cupgrass, Woolly [12, 14] | Plant response rating, Cupgrass, Woolly [12, 15] | Plant response rating, Cupgrass, Woolly [12, 16] | Plant response rating, Cupgrass, Woolly [12, 17] | Plant response rating, Cupgrass, Woolly [12, 18]
0: Plant response rating, Galium [3, 20] | Plant response rating, Galium [3, 21] | Galium plant response rating ([3]; 8 g ai/ha, scale 0 to 100) | Bromegrass, Downy plant response rating ([4]; Preemergence, scale 0 to 100) | Plant response rating, Nightshade, E. B. [5, 20] | Plant response rating, Nightshade, E. B. [5, 21] | Nightshade, E. B. plant response rating ([5]; 8 g ai/ha, scale 0 to 100) | Johnsongrass plant response rating ([8]; Preemergence, scale 0 to 100) | Morningglory plant response rating ([9]; postemergence, 0-100 scale) | Plant response rating, Morningglory [9, 14] | Plant response rating, Morningglory [9, 15] | Plant response rating, Morningglory [9, 16] | Plant response rating, Morningglory [9, 17] | Plant response rating, Morningglory [9, 19] | Plant response rating, Morningglory [9, 18] | Morningglory plant response rating ([9]; Preemergence, scale 0 to 100) | Pigweed plant response rating ([10]; postemergence, 0-100 scale) | Plant response rating, Pigweed [10, 14] | Plant response rating, Pigweed [10, 15] | Plant response rating, Pigweed [10, 16] | Plant response rating, Pigweed [10, 17] | Plant response rating, Pigweed [10, 19] | Plant response rating, Pigweed [10, 18] | Pigweed plant response rating ([10]; Preemergence, scale 0 to 100) | Velvetleaf plant response rating ([11]; postemergence, 0-100 scale) | Plant response rating, Velvetleaf [11, 14] | Plant response rating, Velvetleaf [11, 15] | Plant response rating, Velvetleaf [11, 16] | Plant response rating, Velvetleaf [11, 19] | Plant response rating, Velvetleaf [11, 18] | Velvetleaf plant response rating ([11]; Preemergence, scale 0 to 100) | Nutsedge, Yellow plant response rating ([13]; 8 g ai/ha, postemergence, 0-100 scale) | Plant response rating, Nutsedge, Yellow [13, 14] | Plant response rating, Nutsedge, Yellow [13, 15] | Plant response rating, Nutsedge, Yellow [13, 16] | Plant response rating, Nutsedge, Yellow [13, 17] | Plant response rating, Nutsedge, Yellow [13, 19] | Plant response rating, Nutsedge, Yellow [13, 18]
65: Oat, Wild plant response rating (wild oat (Avena fatua); Preemergence, scale 0 to 100)
55: Bromegrass, Downy plant response rating ([4]; postemergence, 0-100 scale) | Plant response rating, Bromegrass, Downy [4, 14]
90: Ryegrass, Italian plant response rating ([1]; Preemergence, scale 0 to 100) | Plant response rating, Galium ([3]; 62 g ai/ha, scale 0 to 100) | Plant response rating, Johnsongrass [8, 14] | Plant response rating, Johnsongrass [8, 15] | Plant response rating, Johnsongrass [8, 19] | Plant response rating, Oat, Wild (wild oat (Avena fatua); [19])
60: Plant response rating, Bromegrass, Downy [4, 19] | Johnsongrass plant response rating ([8]; postemergence, 0-100 scale) | Cupgrass, Woolly plant response rating ([12]; Preemergence, scale 0 to 100)
95: Blackgrass plant response rating ([2]; postemergence, 0-100 scale) | Plant response rating, Blackgrass [2, 14] | Blackgrass plant response rating ([2]; Preemergence, scale 0 to 100) | Foxtail, Green plant response rating ([7]; postemergence, 0-100 scale) | Plant response rating, Oat, Wild (wild oat (Avena fatua); [18])
80: Plant response rating, Bromegrass, Downy [4, 15]
98: Ryegrass, Italian plant response rating ([1]; postemergence, 0-100 scale) | Foxtail, Giant plant response rating ([6]; postemergence, 0-100 scale) | Oat, Wild plant response rating (wild oat (Avena fatua); postemergence, 0-100 scale)
